Read-outs that look alike come from different tables or passages of the source.
Key:
[1] = tin (Pb^2+); previous disclosed chelating agent; cited from earlier work
[2] = calcium (Ca^2+); previous disclosed chelating agent; cited from earlier work
[3] = zinc (Zn^2+); previous disclosed chelating agent; cited from earlier work
[4] = barium (Ba^2+); previous disclosed chelating agent; cited from earlier work
[5] = manganese (Mn^2+); previous disclosed chelating agent; cited from earlier work
[6] = magnesium (Mg^2+); previous disclosed chelating agent; cited from earlier work
[7] = copper (Cu2+); previous disclosed chelating agent; cited from earlier work
[8] = mercury (Hg^2+); previous disclosed chelating agent; cited from earlier work
[9] = iron (Fe^3+); previous disclosed chelating agent; cited from earlier work
[10] = cadmium (Cd^2+); previous disclosed chelating agent; cited from earlier work
[11] = aluminium (Al^3+); previous disclosed chelating agent; cited from earlier work
[12] = cobolt (Co^2+); previous disclosed chelating agent; cited from earlier work
[13] = nickel (Ni^2+); previous disclosed chelating agent; cited from earlier work
[14] = iron (Fe^2+); previous disclosed chelating agent; cited from earlier work
[15] = calcium chelation value of crude ligand; format: physicochemical; parameters: unit not given here
Experimental: (§1) The diethanolamine derivatives and maleic anhydride can be synthesized by the reaction according to equation (I). The diethanolamine precursor, maleic anhydride, and selected catalyst were added into about 15-20 mL of dichloromethane solvent, wherein the amounts of each compounds were shown in table 1. Then, the obtained mixture was refluxed at the temperature of 50° C. until the reaction was completed. The amount of precursors being used was monitored. The solvent was removed from the obtained product. The obtained product was dissolved in 50 mL of distilled water and washed with dichloromethane for at least 3 times (30 mL each). After being washed, the obtained product was dried under vacuum and analyzed for its property using ^1H NMR spectroscopy and liquid chromatography mass spectrometry (LC/MS) technique.
as §1, with “succinic” for “maleic”, “(II).” for “(I).”, “3.” for “1.”, “in” for “in 50 mL of”, “water (50 mL)” for “water”
as §1, with “and succinic” for “and maleic”, “equation (III).” for “equation (I).”, “precursor, phthalic” for “precursor, maleic”, “table 5.” for “table 1.”, “in” for “in 50 mL of”, “water (50 mL)” for “water”

[16] = stability constant by complex titration; format: physicochemical; details: synthesized chelating agent
Text: The analysis of stability constant between the synthesized chelating agent and metal ions can be performed by complex titration wherein the stability constant of the synthesized chelating agent and metal ions comparing to the previous disclosed degradable chelating agent can be performed according to table 7.

[17] = crude of ligand 1-1 to ligand 1-11 without purification

For `O=C(O)CC(OCCN(CCOC(CC(=O)O)C(=O)O)[C@@H](CC(=O)O)C(=O)O)C(=O)O` (stereo partly shown) [BCA6], the stability constant [1] is given as 10.82, the stability constant [2] is given as 7.71 and the stability constant [3] is given as 11.34. For the same molecule, the stability constant [4] was 6.1, the stability constant [5] was 9.28 and the stability constant [6] was 5.98. For the same molecule, the stability constant [7] was 13.08, the stability constant [8] was 14.85 and the stability constant [9] was 17.3. For the same molecule, the stability constant [10] was 11.09 and the stability constant [11] was 6.14.

For `O=C(O)C[C@H](NCCN[C@@H](CC(=O)O)C(=O)O)C(=O)O` [EDDS, ethylene diamine-N,N-disuccinic acid], the stability constant [1] is given as 12.7, the stability constant [2] is given as 4.6 and the stability constant [3] is given as 13.4. The stability constant [4] was 3.0, the stability constant [6] was 6.0 and the stability constant [7] was 18.4. The stability constant [12] was 13.6, the stability constant [13] was 16.7 and the stability constant [9] was 22.0. For the same molecule, the stability constant [10] was 16.4.

For `O=C(O)CC(NC(CC(=O)O)C(=O)O)C(=O)O` (stereo not shown) [IDS, iminodisuccinic acid], the stability constant [1] is listed as 11.0, the stability constant [2] is listed as 5.2 and the stability constant [3] is listed as 10.8. For the same molecule, the stability constant [4] was 2.1, the stability constant [5] was 7.7 and the stability constant [14] was 8.2. The stability constant [6] was 6.1, the stability constant [7] was 13.1 and the stability constant [12] was 10.5. The stability constant [13] was 12.2, the stability constant [8] was 14.9 and the stability constant [9] was 15.2. The stability constant [10] was 8.4 and the stability constant [11] was 14.1.

In the case of `CC(C(=O)O)N(CC(=O)O)CC(=O)O` (stereo not shown) [MGDA, methylglycinediacetic acid], the stability constant [2] is given as 7.0, the stability constant [3] is given as 10.9 and the stability constant [4] is given as 4.9. The stability constant [5] was 8.4, the stability constant [14] was 8.1 and the stability constant [6] was 5.8. For the same molecule, the stability constant [7] was 13.9, the stability constant [13] was 12.0 and the stability constant [9] was 16.5.

With `O=C(O)/C=C/C(=O)OCCN(CCOC(=O)/C=C/C(=O)O)C(=O)/C=C/C(=O)O` [ligand 1-1] the calcium chelation value [15, 17] was 4.

`O=C(O)/C=C/C(=O)OCCN(CCOC(=O)/C=C/C(=O)O)C(=O)/C=C/C(=O)O` [ligand 1-2] showed a calcium chelation value [15, 17] of 15.

In the case of `O=C(O)/C=C/C(=O)OCCN(CCOC(=O)/C=C/C(=O)O)C(=O)/C=C/C(=O)O` [ligand 1-3], the calcium chelation value [15, 17] is reported as 13.

For `O=C(O)/C=C/C(=O)OCCN(CCOC(=O)/C=C/C(=O)O)C(=O)/C=C/C(=O)O` [ligand 1-4], the calcium chelation value [15, 17] was 9.

For `O=C(O)/C=C/C(=O)OCCN(CCOC(=O)/C=C/C(=O)O)C(=O)/C=C/C(=O)O` [ligand 1-5], the calcium chelation value [15, 17] was 3.

`O=C(O)/C=C/C(=O)OCCN(CCOC(=O)/C=C/C(=O)O)C(=O)/C=C/C(=O)O` [ligand 1-7] showed a calcium chelation value [15, 17] of 46.

In the case of `O=C(O)/C=C/C(=O)OCCN(CCOC(=O)/C=C/C(=O)O)C(=O)/C=C/C(=O)O` [ligand 1-8], the calcium chelation value [15, 17] is reported as 58.

Molecule `O=C(O)/C=C/C(=O)OCCN(CCOC(=O)/C=C/C(=O)O)C(=O)/C=C/C(=O)O` [ligand 1-9] has a calcium chelation value [15, 17] of 83.

For `O=C(O)/C=C/C(=O)OCCN(CCOC(=O)/C=C/C(=O)O)C(=O)/C=C/C(=O)O` [ligand 1-10], the calcium chelation value [15, 17] was 62.

Work on `O=C(O)/C=C/C(=O)OCCN(CCOC(=O)/C=C/C(=O)O)C(=O)/C=C/C(=O)O` [ligand 1-11] yielded a calcium chelation value [15, 17] of 60.

Work on `O=C(O)/C=C/C(=O)OCCN(CCOC(=O)/C=C/C(=O)O)C(=O)/C=C/C(=O)O` [ligand 1] yielded a stability constant ([16]; aluminium (Al^3+)) of 10.7, a stability constant ([16]; barium (Ba^2+)) of 7.8 and a stability constant ([16]; cadmium (Cd^2+)) of 8.5. The stability constant ([16]; calcium (Ca^2+)) was 9.3, the stability constant ([16]; cobolt (Co^2+)) was 10.4 and the stability constant ([16]; copper (Cu2+)) was 12.8. For the same molecule, the stability constant ([16]; iron (Fe^2+)) was 14.8, the stability constant ([16]; iron (Fe^3+)) was 9.5 and the stability constant ([16]; magnesium (Mg^2+)) was 8.3. For the same molecule, the stability constant ([16]; manganese (Mn^2+)) was 10.4, the stability constant ([16]; mercury (Hg^2+)) was 7.8 and the stability constant ([16]; nickel (Ni^2+)) was 5.0. It also gave a stability constant ([16]; strontium (Sr^2+)) of 7.7, a stability constant ([16]; tin (Pb^2+)) of 11.4 and a stability constant ([16]; zinc (Zn^2+)) of 9.0.

`O=C(O)CCC(=O)OCCN(CCOC(=O)CCC(=O)O)C(=O)CCC(=O)O` [ligand 2-1] gave a calcium chelation value ([15]; crude of ligand 2-1 to ligand 2-9 without purification) of 5.
